This is an account of results in patent publication US20260130857A1, “SUSTAINED-RELEASE INJECTABLE COMPOSITION FOR TREATING OR PREVENTING INFLAMMATORY DISEASE, AND METHOD FOR PREPARING SAME” (INVENTAGE LAB INC., priority 2022, published 2026).

Each structure is given as a SMILES string.

The subject of data set [1] is MIA-OA model. In words: Trial for treatment of osteoarthritis (OA): weight-bearing and paw withdrawal tests taken together. The format is in vivo, rats. As to the method: (§1) After acclimatization, rats were divided into groups, and the area around the left lower limb knee joint of each rate was shaved clean. Then, MIA (monosodium iodoacetate, Sigma, USA), an osteoarthritis-inducing substance, was prepared at a concentration of 60 mg/mL in 0.9% sterile saline and 50 μL was administered intra-articularly to each rat using a BD Ultra-Fine™ II Insulin Syringe. The right knee joint was administered only the same volume of 0.9% sterile saline. Two weeks after MIA administration, the test substances shown in Table 5 below were administered intra-articularly, and the therapeutic efficacy thereof was evaluated.
(§2) CBD solution and Examples 2 to 4 were each administered to the left knee joint cavity 14 days after MIA administration, and only the same amount of 0.9% sterile saline was administered to the right knee joint. The normal control and positive control groups were also administered the same amount of 0.9% saline.

For data set [2], the system named is MIA-OA model. In words: Paw withdrawal threshold test in osteoarthritis model. Type of data set: in vivo, rats. To be noted: thereafter (later than 2 hours after administration). As to the method:
as §1, with “evaluated. […]” for “evaluated.”
The paw withdrawal response was measured before MIA administration (day 0) and 7 days and 14 days after MIA administration (before test drug administration), and the paw withdrawal response was evaluated after applying mechanical stimulation using an electronic von-Frey aesthesiometer (IITC Life Science, USA) 2 hours, 4 hours, 4 days, 7 days, 11 days, 14 days, 21 days, and 28 days after test drug administration. […] In the measurement method, an electronic von-Frey filament was applied perpendicular to the sole of the paw, the threshold (g force) value at which a rapid withdrawal response occurred was measured. The measurement results were analyzed as the ratio of g forces measured on the left and right paws (left/right). […]

Data set [3] can be described thus: Rat pharmacokinetic test, single subcutaneous injection. To be noted: male, SD, in vivo, CBD solution 300 μg/head, IVL5005 9 mg/head, rat serum, read-out: blood CBD concentration. On the set-up: species or system SD rats. From the text:
The experimental conditions for conducting the rat pharmacokinetic test are as follows:
CBD isolate solution was used as a control. As experimental animals, 6-week-old male SD rats were purchased from Coretech, acclimated for a week, and then tested. The experimental diet was a general feed for experimental animals (Orient), and the rats were raised with free access to water and feed.
At a total of 14 time points, including time 0 (before SC administration of the test substance to the acclimated rats) and 4 hr, 8 hr, 24 hr, 3 d, 5 d, 1 w, 2 w, 4 w, 6 w, 8 w, and 12 w after SC administration of the test substance, 500 to 1,000 μL of blood was sampled from the jugular vein at each time point, and then immediately, the blood was centrifuged at 1,000 g for 10 minutes to separate the serum, which was then frozen and stored at −70° C.

Data set [4] can be described thus: Body weight measurement in MIA-induced osteoarthritis trial. Type of data set: in vivo. The settings on record: MIA rats, single IA dose: CBD solution 300 ug/joint, Examples 2 and 4 2 mg/joint, Example 3 1 mg/joint; test period. The protocol:
as §1, §2
However, when CBD was administered, it was confirmed that the body weight gain increased compared to that in the positive control as feed intake activity was improved due to a decrease in pain. This tendency was particularly significant in Examples 3 and 4.

With `C=C(C)[C@@H]1CCC(C)=C[C@H]1c1c(O)cc(CCCCC)cc1O` [CBD solution, Cannabidiol], the “therapeutic effect compared to the PC group” value is recorded as “no difference from the PC group” in the data set with MIA-OA model [1] (after the early stage / long term (to day 28)) and “showed an effect” in the data set with MIA-OA model [1] (early stage of administration). In the data set with MIA-OA model [2], the “paw withdrawal threshold ratio compared to control group” value is on record as “no difference”. The concentration at 1 w in data set [3] (1 w after single SC) came out at 361 ng/mL. For the same compound, in data set [3] (2 w after single SC), the concentration at 2 w came to 0 ng/mL. Besides, the concentration at 4 w in data set [3] (4 w after single SC) stood at 0 ng/mL. Also, the concentration at 7 w in data set [3] (7 w after single SC) amounted to 0 ng/mL. In data set [3] (1 d after single SC), the concentration at 1 d was 3940 ng/mL. In data set [4], the “body weight gain compared to positive control group” value is “tended to increase”.
